Experimental data: PMC7999318 (International Journal of Molecular Sciences, 2021)

What was measured:
[1] = tested on: ELuc-HepG2 cells
[2] = tested on: CYPs-ELuc-HepG2 cells
[3] = tested on: ELuc-HepG2 cells; remark: listed apart in the source
[4] = tested on: CYPs-ELuc-HepG2 cells; remark: listed apart in the source
[5] = tested on: ELuc-HepG2 cells; remark: listed apart in the source
[6] = tested on: CYPs-ELuc-HepG2 cells; remark: listed apart in the source
[7] = tested on: wild-type HepG2 cells; conditions: cited from earlier work
[8] = tested on: CYPs-HepG2 cells; conditions: cited from earlier work

Row | Molecule | bioluminescence intensity [1] | bioluminescence intensity [2] | bioluminescence intensity in real time [5] | bioluminescence intensity in real time [6] | cytotoxicity [7] | cytotoxicity [8] | further results
1 | Nn1nnc2ccccc21 [ABT, 1-aminobenzotriazole] | not affected | not affected | – | – | – | – | –
2 | OC[C@@H](O)[C@@H](O)[C@H](O)[C@H](O)CO [D-mannitol] | no remarkable changes | no remarkable changes | – | – | – | – | bioluminescence intensities during long-term culture [2]: no significant changes; viability by WST-1 assay [3]: no remarkable changes; viability by WST-1 assay [4]: no remarkable changes
3 | CCCCCCCCCCCCOS(=O)(=O)[O-].[Na+] [SDS, sodium dodecyl sulfate] | – | – | – | – | – | – | concentration-response curves compared with ELuc-HepG2 cells (bioluminescence) ([2]; 3 days): very similar concentration-response curves
4 | COc1cc(NC(C)CCCN)c2ncccc2c1 (centres unmarked) [primaquine] | – | – | Time- and concentration-dependent decreases | much faster decrease | – | – | time at which the first IC50 value was noted [5]: 22 h; decrease of bioluminescence intensity under CYP2D6 inhibitor [6]: partially abolished; time at which the first IC50 value was noted [6]: 12 h
5 | COc1cc2c(c3oc4cccc(O)c4c(=O)c13)[C@@H]1C=CO[C@@H]1O2 [sterigmatocystin] | – | – | – | – | not | showed cytotoxicity | –
6 | aflatoxin B1 | did not decrease | concentration-dependent decrease | no decrease | time- and concentration-dependent decreases | not | showed cytotoxicity | first IC50 value [5]: not observed; IC50 values during long-term culture [2]: almost unchanged; aflatoxin B1 concentration-dependent decrease of bioluminescence intensity under CYP inhibitor [2]: completely diminished; decrease of bioluminescence intensity under CYP3A4 inhibitor [6]: partially diminished; IC50 ([6]; read-out: first IC50 value): 7.9 µM
